Source: PMC6193938, “Characterization of a novel AICARFT inhibitor which potently elevates ZMP and has anti-tumor activity in murine models” (Scientific Reports, 2018)

Assays:
PKAa = target: T1, PKAa (Homo sapiens, UniProt P17612); experiment: CEREP protein kinase assay; type: biochemical
T1 construct: purchased CEREP Panlabs (Eurofins)

CDK2 = target: T2, CDK2 (Homo sapiens, UniProt P24941); experiment: CEREP protein kinase assay; type: biochemical
T2 construct: purchased CEREP Panlabs (Eurofins)

BRK = target: T3, BRK (Homo sapiens, UniProt Q13882); experiment: CEREP protein kinase assay; type: biochemical
T3 construct: purchased CEREP Panlabs (Eurofins)
T3 sequence (Q13882 whole entry): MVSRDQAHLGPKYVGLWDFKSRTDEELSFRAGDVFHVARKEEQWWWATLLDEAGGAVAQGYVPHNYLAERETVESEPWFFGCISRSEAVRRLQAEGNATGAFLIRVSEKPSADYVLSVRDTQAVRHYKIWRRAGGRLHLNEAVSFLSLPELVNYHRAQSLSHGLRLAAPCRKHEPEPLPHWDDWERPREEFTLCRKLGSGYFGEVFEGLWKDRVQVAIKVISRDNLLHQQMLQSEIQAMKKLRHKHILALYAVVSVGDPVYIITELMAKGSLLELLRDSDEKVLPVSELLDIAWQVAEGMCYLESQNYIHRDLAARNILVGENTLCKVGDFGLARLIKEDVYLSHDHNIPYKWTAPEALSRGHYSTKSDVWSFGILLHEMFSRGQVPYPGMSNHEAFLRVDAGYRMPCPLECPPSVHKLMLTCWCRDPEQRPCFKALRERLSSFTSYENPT

cell lines of Table 1 = experiment: MS detection of ZMP in cultured cells, average over cell lines; type: cell-based; settings: Homo sapiens
Experimental: Cells lines were acquired from cell banks, see supplemental material, grown using the cell banks recommended culture conditions (Supplemental Table 3). In some experiments noted “low folate” the cells were washed and grown in folate free RPMI-1640 media (Gibco #27016-021) supplemented with 5 ml 1 M Hepes, 5 ml 100 mM Na pyruvate, 2.5 mg/ml glucose and 10% defined FBS (Hyclone #SH30070) per 500 mL media for 5–7 days to deplete intracellular folate levels prior to the start of the experiment. Where noted, cells were maintained in complete “high folate” RPMI-1640 media (ATCC #30-2001) with 10% defined FBS to contrast with the low folate conditions.
ZMP was detected in cultured cells via mass spec analysis. Cells were plated in 96-well plates at 25,000 cells per well in 100 µL with either high or low folate RPMI media and incubated overnight at 37 °C with 5% CO2. Cells were treated with inhibitor compounds for 16 hours, 0.5% DMSO final concentration. […]
ZMP, AICAr and dUMP were detected using positive ion TurboIonSpray® multiple reaction monitoring mode and the data were processed with AB Sciex MultiQuant™. Back-calculated ZMP concentrations were fit to a four-parameter logistic equation using ACTIVITYBASE 4.0 to determine EC50 values relative to the maximum observed metabolite levels.

FLT3 = target: T4, FLT3 (Homo sapiens, UniProt P36888); experiment: CEREP protein kinase assay; type: biochemical
T4 construct: purchased CEREP Panlabs (Eurofins)
T4 sequence (P36888 27-993): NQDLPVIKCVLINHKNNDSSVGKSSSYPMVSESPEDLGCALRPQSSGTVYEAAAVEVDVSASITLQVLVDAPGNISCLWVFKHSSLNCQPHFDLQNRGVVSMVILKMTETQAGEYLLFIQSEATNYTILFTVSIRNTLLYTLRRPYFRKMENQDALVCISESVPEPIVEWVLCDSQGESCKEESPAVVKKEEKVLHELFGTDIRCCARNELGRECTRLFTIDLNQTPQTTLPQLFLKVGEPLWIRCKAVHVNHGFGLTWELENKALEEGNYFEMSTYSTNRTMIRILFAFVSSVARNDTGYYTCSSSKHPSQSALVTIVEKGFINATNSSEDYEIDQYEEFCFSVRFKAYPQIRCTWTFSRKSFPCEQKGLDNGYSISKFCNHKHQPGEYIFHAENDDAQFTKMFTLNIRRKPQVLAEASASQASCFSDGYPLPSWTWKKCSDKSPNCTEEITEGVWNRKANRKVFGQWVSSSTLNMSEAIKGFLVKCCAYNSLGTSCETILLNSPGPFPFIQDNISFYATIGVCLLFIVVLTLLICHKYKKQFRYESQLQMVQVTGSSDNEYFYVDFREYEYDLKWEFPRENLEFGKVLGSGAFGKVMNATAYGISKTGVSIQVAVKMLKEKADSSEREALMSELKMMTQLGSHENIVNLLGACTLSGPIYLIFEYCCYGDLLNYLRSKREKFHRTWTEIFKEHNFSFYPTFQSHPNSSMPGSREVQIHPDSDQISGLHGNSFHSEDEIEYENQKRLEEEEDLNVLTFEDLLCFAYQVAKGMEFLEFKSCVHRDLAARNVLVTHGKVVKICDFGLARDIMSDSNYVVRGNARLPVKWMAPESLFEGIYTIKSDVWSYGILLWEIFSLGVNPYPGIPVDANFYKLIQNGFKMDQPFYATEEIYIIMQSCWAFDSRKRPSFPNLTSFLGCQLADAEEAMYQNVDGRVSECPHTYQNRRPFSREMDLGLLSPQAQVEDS

MDA-MB-231met2 xenograft = experiment: Antitumor efficacy and tumor metabolites, mouse xenograft; type: in vivo; settings: after 22 days of dosing
FGFR3 = target: T5, FGFR3 (Homo sapiens, UniProt P22607); experiment: CEREP protein kinase assay; type: biochemical
T5 construct: purchased CEREP Panlabs (Eurofins)
T5 sequence (P22607 23-806): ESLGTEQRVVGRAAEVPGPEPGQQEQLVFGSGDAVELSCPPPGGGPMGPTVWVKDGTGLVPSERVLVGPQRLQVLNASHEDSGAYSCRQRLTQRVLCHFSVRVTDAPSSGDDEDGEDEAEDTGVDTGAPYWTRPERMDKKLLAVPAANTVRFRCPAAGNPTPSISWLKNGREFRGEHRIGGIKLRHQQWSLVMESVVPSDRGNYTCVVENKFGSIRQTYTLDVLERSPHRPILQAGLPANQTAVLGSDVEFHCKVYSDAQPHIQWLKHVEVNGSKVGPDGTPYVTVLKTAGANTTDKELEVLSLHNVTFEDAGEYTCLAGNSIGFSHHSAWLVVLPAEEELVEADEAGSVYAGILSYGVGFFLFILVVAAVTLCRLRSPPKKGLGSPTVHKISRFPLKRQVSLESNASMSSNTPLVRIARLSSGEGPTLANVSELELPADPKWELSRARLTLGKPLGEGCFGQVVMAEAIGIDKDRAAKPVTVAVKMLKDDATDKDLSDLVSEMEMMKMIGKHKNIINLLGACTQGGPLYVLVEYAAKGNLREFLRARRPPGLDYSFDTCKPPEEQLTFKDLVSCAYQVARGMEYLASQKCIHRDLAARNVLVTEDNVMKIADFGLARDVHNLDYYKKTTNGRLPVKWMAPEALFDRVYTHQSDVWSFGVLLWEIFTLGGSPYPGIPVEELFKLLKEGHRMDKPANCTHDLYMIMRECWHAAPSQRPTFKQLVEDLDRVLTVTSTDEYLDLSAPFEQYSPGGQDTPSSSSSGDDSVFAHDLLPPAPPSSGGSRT

JNK3 = target: T6, JNK3 (Homo sapiens, UniProt P53779); experiment: CEREP protein kinase assay; type: biochemical
T6 construct: purchased CEREP Panlabs (Eurofins)
T6 sequence (P53779 whole entry): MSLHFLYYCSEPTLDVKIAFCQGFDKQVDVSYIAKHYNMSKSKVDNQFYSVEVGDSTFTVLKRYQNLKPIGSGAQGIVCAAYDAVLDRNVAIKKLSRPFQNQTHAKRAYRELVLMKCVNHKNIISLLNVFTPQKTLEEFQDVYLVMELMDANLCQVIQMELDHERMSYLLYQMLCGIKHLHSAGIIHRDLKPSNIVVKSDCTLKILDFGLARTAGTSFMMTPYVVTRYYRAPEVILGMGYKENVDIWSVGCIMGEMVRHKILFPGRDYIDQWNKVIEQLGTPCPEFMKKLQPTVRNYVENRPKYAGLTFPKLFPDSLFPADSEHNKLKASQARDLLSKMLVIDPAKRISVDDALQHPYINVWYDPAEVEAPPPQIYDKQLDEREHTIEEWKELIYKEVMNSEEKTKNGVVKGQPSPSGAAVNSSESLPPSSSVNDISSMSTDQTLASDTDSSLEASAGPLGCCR

HER2 = target: T7, HER2 (Homo sapiens, UniProt P04626); experiment: CEREP protein kinase assay; type: biochemical
T7 construct: purchased CEREP Panlabs (Eurofins)
T7 sequence (P04626 23-1255): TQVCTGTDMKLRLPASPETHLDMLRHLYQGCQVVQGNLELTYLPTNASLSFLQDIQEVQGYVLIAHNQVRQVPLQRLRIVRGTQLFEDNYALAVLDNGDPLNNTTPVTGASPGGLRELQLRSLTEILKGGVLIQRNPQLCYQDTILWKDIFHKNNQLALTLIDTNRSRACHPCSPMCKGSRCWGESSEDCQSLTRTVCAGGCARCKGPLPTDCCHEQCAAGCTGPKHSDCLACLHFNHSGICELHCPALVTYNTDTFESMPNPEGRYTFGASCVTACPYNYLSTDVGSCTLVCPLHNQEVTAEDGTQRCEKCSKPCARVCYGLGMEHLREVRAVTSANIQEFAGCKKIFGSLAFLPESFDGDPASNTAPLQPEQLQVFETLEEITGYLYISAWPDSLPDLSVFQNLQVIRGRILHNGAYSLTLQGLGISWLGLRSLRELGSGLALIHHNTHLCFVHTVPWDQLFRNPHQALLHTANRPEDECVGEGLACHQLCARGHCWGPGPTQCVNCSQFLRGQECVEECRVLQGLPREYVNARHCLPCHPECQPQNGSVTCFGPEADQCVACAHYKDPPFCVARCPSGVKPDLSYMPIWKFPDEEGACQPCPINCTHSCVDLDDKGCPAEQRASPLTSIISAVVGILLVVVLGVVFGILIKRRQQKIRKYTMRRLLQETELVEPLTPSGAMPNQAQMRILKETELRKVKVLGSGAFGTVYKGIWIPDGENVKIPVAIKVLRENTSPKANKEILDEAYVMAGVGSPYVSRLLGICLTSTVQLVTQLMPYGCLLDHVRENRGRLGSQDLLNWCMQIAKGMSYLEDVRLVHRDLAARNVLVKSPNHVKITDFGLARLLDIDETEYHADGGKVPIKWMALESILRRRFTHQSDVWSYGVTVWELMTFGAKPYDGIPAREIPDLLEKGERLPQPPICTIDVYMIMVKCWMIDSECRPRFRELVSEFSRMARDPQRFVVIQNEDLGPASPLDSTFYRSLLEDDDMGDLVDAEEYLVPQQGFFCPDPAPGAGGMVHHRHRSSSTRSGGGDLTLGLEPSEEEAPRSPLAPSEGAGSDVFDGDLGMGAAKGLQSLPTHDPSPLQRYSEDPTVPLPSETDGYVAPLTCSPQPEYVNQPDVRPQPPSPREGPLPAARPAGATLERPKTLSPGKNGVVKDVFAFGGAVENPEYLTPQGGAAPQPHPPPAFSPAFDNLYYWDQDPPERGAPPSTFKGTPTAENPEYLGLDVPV

SMILES: O=c1[nH]ccc2cc(F)c(NS(=O)(=O)c3ccc(N4CC[C@@H](O)C4)s3)cc12 [LSN3213128, N-(6-Fluoro-1-oxo-1,2-dihydroisoquinolin-7-yl)-5-[(3R)-3-hydroxypyrrolidin-1-yl]thiophene-2-sulfonamide]
- inhibition at 0.2 µM (PKAa; @ 0.2 uM): -7.44%
- inhibition at 2 µM (PKAa; @ 2 uM): -0.808%
- inhibition at 20 µM (PKAa; @ 20 uM): 3.8%
- inhibition at 0.2 µM (CDK2; @ 0.2 uM): -10.2%
- inhibition at 2 µM (CDK2; @ 2 uM): -1.29%
- inhibition at 20 µM (CDK2; @ 20 uM): 29.2%
- inhibition at 0.2 µM (BRK; @ 0.2 uM): -32.5%
- inhibition at 2 µM (BRK; @ 2 uM): -9.31%
- inhibition at 20 µM (BRK; @ 20 uM): -3.2%
- EC50 (cell lines of Table 1; low folate media, 12 cell lines): 4.9 ± 2.6 nM
- EC50 (cell lines of Table 1; normal RPMI, 8 cell lines): 1210 nM
- inhibition at 0.2 µM (FLT3; @ 0.2 uM): -12.1%
- inhibition at 2 µM (FLT3; @ 2 uM): 10.7%
- inhibition at 20 µM (FLT3; @ 20 uM): 53.2%
- tumor ZTP (MDA-MB-231met2 xenograft; MDA-MB-231met2 tumors): No detectable changes
- tumor ZMP levels (MDA-MB-231met2 xenograft; MDA-MB-231 met2 tumors, 30 and 60 mg/kg): dramatically elevated
- inhibition at 0.2 µM (FGFR3; @ 0.2 uM): 3.62%
- inhibition at 2 µM (FGFR3; @ 2 uM): 13.2%
- inhibition at 20 µM (FGFR3; @ 20 uM): 47%
- inhibition at 0.2 µM (JNK3; @ 0.2 uM): -0.752%
- inhibition at 2 µM (JNK3; @ 2 uM): 19.2%
- inhibition at 20 µM (JNK3; @ 20 uM): 76.2%
- inhibition at 0.2 µM (HER2; @ 0.2 uM): 6.55%
- inhibition at 2 µM (HER2; @ 2 uM): 12.4%
- inhibition at 20 µM (HER2; @ 20 uM): 9.08%
